Entries after “also recorded” stand apart in the source; their conditions may differ.
What was measured:
[1] = tested on: serovar L2 of the Chlamydia trachomatis LGV biovar, serovar D of the trachoma biovar, Chlamydia muridarum; experiment: Abnormal inclusions in different host cell types, serovars and Chlamydia species; assay type: cell-based; conditions: THP-1, RL95-2, HeLa, C. muridarum, penicillin G at 3 hpi
Description: In blue in the original figure; Hoechst, in green in the original figure: anti-Chlamydia sp. Image taken at 24 hpi (RL95-2/Chlamydia L2; HeLa/Chlamydia-D; HeLa/C. muridarum) or at 48 hpi (THP-1/Chlamydia-L2; THP-1/Chlamydia-D). Scale: 10 μm.
In order to examine whether the effects of penicillin G on bacterial infectivity depend on the strain or the serovar, ATCC serovar L2 and C. trachomatis serovar D, graciously provided by Dr. de Barbeyrac (University of Bordeaux II, Bordeaux, France) were used. C. muridarum was obtained from Dr. Roger Rank (University of Arkansas, Little Rock, Ark., USA). The bacteria were propagated as a matter of routine in HeLa cells as described above and stored at −80° C. before use (Scidmore, M. A. Curr Protoc Microbiol Chapter 1: Unit 11A 11, 2005). The number of inclusion forming units (IFU) was determined by immunofluorescence, as described above (Verbeke, P. et al. PLoS Pathog 2:e45, 2006).
To examine the effects of penicillin G on cell infection with Chlamydia, the host cells were cultivated up to 70% confluence without antibiotics, and then were infected with C. trachomatis strain L2 or D, or with C. muridarum at 1 IFU. The infections were carried out at 37° C. for 90 minutes with centrifugation, followed by a washing of extracellular bacteria. […]

[2] = tested on: Chlamydia trachomatis serovar L2; experiment: Development and morphology of inclusions in infected HeLa cells (microscopy); assay type: cell-based
Method: HeLa cells were infected with Chlamydia trachomatis serovar L2 and treated with IFN-γ (100 ng/ml), penicillin G (100 U/ml) or gentamicin ([…]). At various times after infection (hours post-infection (hpi)), the cells were fixed and stained with an antibody against Chlamydia sp. (green in the original figure) and with Hoechst (blue in the original figure). The infected HeLa cells treated with penicillin G have abnormal bodies that grow and that are phenotypically quite different from those formed during treatment with IFN-γ. The bodies formed with penicillin G are appreciably different from “classic” persistent bodies. To examine the effects of penicillin G on cell infection with Chlamydia, the host cells were cultivated up to 70% confluence without antibiotics, and then were infected with C. trachomatis strain […]. muridarum at 1 IFU. The infections were carried out at 37° C. for 90 minutes with centrifugation, followed by a washing of extracellular bacteria. At 3 hpi, after the washings, the culture medium was replaced with medium containing either 25 μg/ml gentamicin or 1-100 IU/ml penicillin G. At regular intervals after treatment with penicillin G, the cultures were either fixed in 4% neutral buffered PFA for 30 minutes to be prepared for confocal microscopy, or collected to determine the infectivity of the progeny bacteria, according to the previously described method (Verbeke, P. et al. PLoS Pathog 2:e45, 2006). HeLa cells cultured in monolayers on slides were infected with serovar L2 with an IFU of 1, as described above (Verbeke, P. et al. PLoS Pathog 2:e45, 2006). Three hours after the infection, the medium was removed and replaced with culture medium containing 500 IU/ml (final concentration) recombinant human IFN-γ.

[3] = tested on: persistent forms of Chlamydia; experiment: Penicillin G on persistent infection induced by IFN-γ; assay type: cell-based, Chlamydia trachomatis
Method: HeLa cells cultured in monolayers on slides were infected with serovar L2 with an IFU of 1, as described above (Verbeke, P. et al. PLoS Pathog 2:e45, 2006). Three hours after the infection, the medium was removed and replaced with culture medium containing 500 IU/ml (final concentration) recombinant human IFN-γ. The infected cells were incubated for an additional 100 hours in the presence of IFN-γ before being prepared for confocal microscopy as described below.
HeLa cells cultured in monolayers on slides were infected with Chlamydia trachomatis serovar L2 and treated with penicillin G, as described above. Twenty hours after infection, the culture was washed and the medium replaced with medium free of penicillin G. Between 48 and 100 hpi, the cells and the culture medium were collected at various intervals and a titration test was performed according to the method of the prior art (Scidmore, M. A. Curr Protoc Microbiol Chapter 11: Unit 11A 11, 2005). To determine whether treatment with penicillin G could affect bacterial persistence, HeLa cells infected with L2 and treated with IFN-γ and penicillin G (500 IU/ml) from 48 hpi (i.e. 24 hours after treatment with IFN-γ) to 72 hpi (i.e. 48 hours after treatment with IFN-γ). The slides were then fixed and observed using an epifluorescence microscope (Leica D M, Leica, Mannheim, Germany) equipped with two sets of detection filters (Hoechst 360/40 nmBP-425 nmLP; FITC 480/40 nmBP-527/30 nmBP) and connected to a CCD camera CCC.
The effects of penicillin G were tested on persistent infections. Cells were infected and then treated with IFN-γat 3 hpi. Once the appearance of persistent inclusions was observed under the microscope, penicillin G was added to the infected cells cultured in the presence of IFN-γ.

[4] = tested on: Chlamydia trachomatis L2 serovar 16S rRNA; experiment: 16S rRNA expression by RT-PCR; assay type: cell-based; conditions: 100 hpi
Description: HeLa cells were infected with the Chlamydia trachomatis L2 serovar and treated or not treated with penicillin G at 3 hpi. At 100 hpi, the cells were collected and the RNA extracted carefully to avoid DNA contamination. Half of the isolated RNA was used for reverse transcription. The RNA and cDNA were amplified by PCR with primers for 16S (bacterial) and 18S (eukaryotic) rRNA in order to study bacterial activity and to verify cDNA quality and quantity. PCR of the RNA is used to verify the absence of DNA contamination. It also indicates the absence of contaminant in the PCR. […] Roughly 1×10^5 HeLa cells were infected and exposed or not exposed to penicillin G, as described above. At 100 hpi, total RNA were isolated using the RNeasy Plus Mini Kit (Qiagen, Hilden, Germany). The samples were treated with DNase I for 1 hour at 37° C. The enzyme was then denatured at 70° C. for 10 min. The RNA were reverse-transcribed into cDNA using random hexamer primers and AffinityScript Multiple Temperature Reverse Transcriptase (Agilent, Santa Clara, Calif., USA) and by following the manufacturer's instructions for RT-PCR. cDNA and RNA were amplified by PCR with Tag Polymerase (Invitrogen, Carlsbad, Calif., USA) in order to verify the absence of DNA contamination. The primers used to amplify 16S rRNA are: A semi-quantitative analysis of the PCR products was carried out by agarose gel electrophoresis and UV detection.

In the case of `CC1(C)S[C@@H]2[C@H](NC(=O)Cc3ccccc3)C(=O)N2[C@H]1C(=O)O` [Penicillin G, benzylpenicillin], the “generation of abnormal inclusions in other host cells, serovars, species” value [1] is reported as “independent of the type of host cell, serovar, biovar or even species of Chlamydia bacterium used; also recorded: exhibiting abnormal inclusions”, the “growth of the bacterial inclusions” value ([2]; infected HeLa cells, videomicroscopy / culture for 4 days) is reported as “grow as quickly as those of cells treated with gentamicin” and the “time at which infected treated cells were lysed” value ([2]; penicillin G) is reported as 120 hours post-infection (hpi). The “appearance of abnormally dilated structures depending on time of addition” value ([2]; penicillin G added at various times after infection) was “only when penicillin G is added in the first phase of the bacterial cycle (before 24 hpi)”, the “inclusion growth of persistent inclusions after addition of penicillin G” value ([3]; cells kept in IFN-γ) was “Rapid reinitiation of inclusion growth” and the “infectivity of bacteria released on lysis” value ([3]; persistent infection) was “noninfectious”. For the same compound, the “time of cell lysis after start of treatment” value ([3]; persistent infection, IFN-γ present) was 70 h, the “cathepsin D in bacterial forms of persistent infection” value ([3]; twenty-four hours after addition of penicillin G) was “most of the abnormal bacterial forms contained cathepsin D” and the “16S rRNA expression in infected cells” value [4] was “do not produce bacterial RNA; also recorded: express 18S RNA, but not 16S”.

— patent US20130053336A1, “TREATMENT OF CHLAMYDIACEAE INFECTIONS BY MEANS OF BETA-LACTAMS” (priority 2010, published 2013)
